Data on one molecule can be found in article PMC8383266 (Biochemistry, 2021).

Molecules are shown by their SMILES.

The assay concerns the target BlaC (β-lactamase) (Mycobacterium tuberculosis, UniProt P9WKD3, G144S). The class given is biochemical.

As to `NC(=O)[C@@H]1CC[C@@H]2CN1C(=O)N2OS(=O)(=O)O` [avibactam], the “activity of BlaC G132S in the presence of avibactam (Figure S13, not shown)” value was “we found BlaC G132S is also more sensitive to avibactam”.
